Assay results as given in patent publication US20100120858A1, “Piperidine Derivatives” (Pfizer Inc., priority 2006, published 2010).

Tests used:
[1] = target: human norepinephrine transporter (Homo sapiens, UniProt P23975); test: Human norepinephrine (hNET) receptor binding, [125I]-RTI-55; details: membranes of HEK-293 cells transfected with human norepinephrine transporter cDNA; 50 pM [125I]-RTI-55; IC50 converted by Cheng-Prusoff
Outline: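 Membranes from HEK-293 cells expressing human NET, incubated 90 min at room temperature with 50 pM [125I]-RTI-55 and compound (10^−5 to 10^−12 M) in Krebs-HEPES pH 7.4. Nonspecific binding defined with 10 μM desipramine; filter-bound counts gave IC50, converted to Ki by Cheng-Prusoff.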

[2] = target: human serotonin transporter (Homo sapiens, UniProt P31645); test: Human serotonin (hSERT) receptor binding, [125I]-RTI-55; details: membranes of HEK-293 cells transfected with human serotonin transporter cDNA, IC50 converted by Cheng-Prusoff
Outline: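 Membranes from HEK-293 cells expressing human SERT were incubated 90 min at room temperature in Krebs-HEPES buffer pH 7.4 with […] [125I]-RTI-55 and compound (10^−5 to 10^−12 M), in duplicate. Nonspecific binding defined with 10 μM citalopram; IC50 converted to Ki by Cheng-Prusoff.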

Sequence of human norepinephrine transporter (P23975 whole entry): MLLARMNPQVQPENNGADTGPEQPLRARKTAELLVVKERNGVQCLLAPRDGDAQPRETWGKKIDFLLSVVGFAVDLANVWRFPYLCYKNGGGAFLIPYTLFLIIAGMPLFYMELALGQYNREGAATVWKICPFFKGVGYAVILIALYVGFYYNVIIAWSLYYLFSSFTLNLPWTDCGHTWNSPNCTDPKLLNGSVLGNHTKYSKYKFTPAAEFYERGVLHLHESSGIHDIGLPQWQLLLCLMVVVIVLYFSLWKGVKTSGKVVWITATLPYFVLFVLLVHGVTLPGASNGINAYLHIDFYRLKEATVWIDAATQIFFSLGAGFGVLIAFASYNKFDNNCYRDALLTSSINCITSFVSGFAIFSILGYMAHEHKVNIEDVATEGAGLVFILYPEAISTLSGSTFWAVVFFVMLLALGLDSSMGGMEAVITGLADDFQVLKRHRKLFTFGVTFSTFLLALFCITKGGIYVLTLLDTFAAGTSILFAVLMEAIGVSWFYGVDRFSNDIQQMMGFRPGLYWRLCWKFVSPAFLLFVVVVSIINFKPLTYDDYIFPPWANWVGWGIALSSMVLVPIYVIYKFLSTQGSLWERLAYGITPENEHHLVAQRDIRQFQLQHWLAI
Sequence of human serotonin transporter (P31645 whole entry): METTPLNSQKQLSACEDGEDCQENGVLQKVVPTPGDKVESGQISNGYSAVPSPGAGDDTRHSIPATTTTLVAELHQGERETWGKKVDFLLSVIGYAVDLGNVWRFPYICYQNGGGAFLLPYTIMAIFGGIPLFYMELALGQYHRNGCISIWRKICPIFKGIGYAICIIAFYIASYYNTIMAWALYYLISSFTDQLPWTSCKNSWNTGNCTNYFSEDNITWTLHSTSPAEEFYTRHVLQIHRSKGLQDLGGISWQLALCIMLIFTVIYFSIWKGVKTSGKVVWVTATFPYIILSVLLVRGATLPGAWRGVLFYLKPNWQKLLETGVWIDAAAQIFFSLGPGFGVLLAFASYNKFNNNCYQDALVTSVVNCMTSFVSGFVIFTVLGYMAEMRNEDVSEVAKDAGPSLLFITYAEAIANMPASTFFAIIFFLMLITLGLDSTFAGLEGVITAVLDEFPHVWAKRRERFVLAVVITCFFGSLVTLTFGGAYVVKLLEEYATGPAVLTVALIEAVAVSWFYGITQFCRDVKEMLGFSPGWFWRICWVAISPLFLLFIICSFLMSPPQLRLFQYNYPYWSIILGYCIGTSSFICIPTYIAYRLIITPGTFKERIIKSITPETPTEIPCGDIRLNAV

Row | Structure (SMILES) | Ki [1] [nM] | Ki [2] [nM] | melting point
1 | Cl.c1ccc(OC2CCCCC2)c(OC[C@H]2CCCNC2)c1 [Example 101, (S)-3-(2-cyclohexyloxy-phenoxymethyl)-piperidine hydrochloride] | 20 | > 9700 | 149 to 150 °C
2 | Fc1cccc(F)c1Oc1ncccc1OC[C@H]1CCCNC1.O=C(O)/C=C/C(=O)O [Example 72, (S)-2-(2,6-difluoro-phenoxy)-3-(piperidin-3-ylmethoxy)-pyridine fumaric acid] | 2 | 3300 | 182 to 183 °C (dec.)
3 | Cc1cccc(Oc2ncccc2OC[C@H]2CCCNC2)c1.O=C(O)/C=C/C(=O)O [Example 68, (S)-2-(3-methyl-phenoxy)-3-(piperidin-3-ylmethoxy)-pyridine fumaric acid] | 6 | 5800 | 130 to 132 °C
4 | CC(C)Oc1ccccc1Oc1ncccc1OC[C@H]1CCCNC1.O=C(O)/C=C/C(=O)O [Example 74, (S)-2-(2-isopropoxy-phenoxy)-3-(piperidin-3-ylmethoxy)-pyridine fumaric acid] | 11 | > 10000 | 129 to 134 °C (dec.)
5 | Cc1ccccc1Oc1ncccc1OC[C@H]1CCCNC1.O=C(O)/C=C/C(=O)O [Example 73, (S)-2-(2-methyl-phenoxy)-3-(piperidin-3-ylmethoxy)-pyridine fumaric acid] | 4 | > 10000 | 165 to 167 °C (dec.)
6 | Cc1cc(Oc2ncccc2OC[C@H]2CCCNC2)ccc1F.O=C(O)/C=C/C(=O)O [Example 67, (S)-2-(4-fluoro-3-methyl-phenoxy)-3-(piperidin-3-ylmethoxy)-pyridine fumaric acid] | 6 | 3300 | 136 to 138 °C
7 | O=C(O)/C=C/C(=O)O.c1ccc(CCCOc2ncccc2OC[C@H]2CCCNC2)cc1 [Example 83, (S)-2-(3-phenyl-propoxy)-3-(piperidin-3-ylmethoxy)-pyridine fumaric acid] | 210 | 10 | 141 to 142 °C (dec.)
8 | Fc1ccc(Oc2ncccc2OC[C@H]2CCCNC2)cc1F.O=C(O)/C=C/C(=O)O [Example 60, (S)-2-(3,4-difluoro-phenoxy)-3-(piperidin-3-ylmethoxy)-pyridine fumaric acid] | 2 | 6600 | 148 to 150 °C
9 | Fc1ccc(Oc2ncccc2OC[C@H]2CCCNC2)c(Cl)c1.O=C(O)/C=C/C(=O)O [Example 71, (S)-2-(2-chloro-4-fluoro-phenoxy)-3-(piperidin-3-ylmethoxy)-pyridine fumaric acid] | 2 | 6600 | 189 to 190 °C (dec.)
10 | CC(C)COc1ccccc1OCC1CCCNC1.Cl (stereo not drawn) [Example 102, 3-(2-isobutoxy-phenoxymethyl)-piperidine hydrochloride] | 32 | 3960 | 162 °C
11 | CC(C)c1ccccc1Oc1ncccc1OC[C@H]1CCCNC1.O=C(O)/C=C/C(=O)O [Example 75, (S)-2-(2-isopropyl-phenoxy)-3-(piperidin-3-ylmethoxy)-pyridine fumaric acid] | 760 | > 10000 | 112 to 114 °C (dec.)
12 | Clc1cccc(Oc2ncccc2OC[C@H]2CCCNC2)c1.O=C(O)/C=C/C(=O)O [Example 59, (S)-2-(3-chloro-phenoxy)-3-(piperidin-3-ylmethoxy)-pyridine fumaric acid] | 4 | 6300 | 128 to 129 °C
13 | Cl.c1ccc(COc2ccccc2OC[C@H]2CCCNC2)cc1 [Example 99, (S)-3-(2-benzyloxy-phenoxymethyl)-piperidine hydrochloride] | 11 | 4800 | 137 to 140 °C (dec.)
14 | O=C(O)/C=C/C(=O)O.c1ccc(COc2ncccc2OC[C@H]2CCCNC2)cc1 [Example 77, (S)-2-benzyloxy-3-(piperidin-3-ylmethoxy)-pyridine fumaric acid] | 6100 | 7200 | 165 to 167 °C (dec.)
15 | Cc1ccc(Cl)c(Oc2ncccc2OC[C@H]2CCCNC2)c1.O=C(O)/C=C/C(=O)O [Example 76, (S)-2-(2-chloro-5-methyl-phenoxy)-3-(piperidin-3-ylmethoxy)-pyridine fumaric acid] | 4 | 4800 | 183 to 184 °C (dec.)
16 | FC(F)(F)Oc1cccc(Oc2ncccc2OC[C@H]2CCCNC2)c1.O=C(O)/C=C/C(=O)O [Example 70, (S)-3-(piperidin-3-ylmethoxy)-2-(3-trifluoromethoxy-phenoxy)-pyridine fumaric acid] | 102 | 9700 | 144 to 146 °C
17 | Fc1ccc(Oc2ncccc2OC[C@@H]2CCCNC2)cc1F.O=C(O)/C=C/C(=O)O [Example 63, (R)-2-(3,4-difluoro-phenoxy)-3-(piperidin-3-ylmethoxy)-pyridine fumaric acid] | 140 | 803 | 130 to 131 °C
18 | Cc1ccc(Oc2ncccc2OC[C@H]2CCCNC2)cc1C.O=C(O)/C=C/C(=O)O [Example 65, (S)-2-(3,4-dimethyl-phenoxy)-3-(piperidin-3-ylmethoxy)-pyridine fumaric acid] | 7 | 2200 | 169 to 170 °C
19 | Fc1ccc(Oc2ncccc2OC[C@H]2CCCNC2)cc1Cl.O=C(O)/C=C/C(=O)O [Example 66, (S)-2-(3-chloro-4-fluoro-phenoxy)-3-(piperidin-3-ylmethoxy)-pyridine fumaric acid] | 20 | 2900 | 143 to 144 °C (dec.)
20 | Cl.c1ccc(Oc2ccccc2OC[C@H]2CCCNC2)cc1 [Example 43, (S)-3-(2-phenoxy-phenoxymethyl)-piperidine hydrochloride] | 0.7 | 2300 | 134 to 136 °C
21 | Fc1ccc(OC[C@H]2CCCNC2)c(Oc2ccccc2)c1.O=C(O)/C=C/C(=O)O [Example 46, (S)-3-(4-fluoro-2-phenoxy-phenoxymethyl)-piperidine fumaric acid] | 2 | 320 | 128 to 130 °C
22 | O=C(O)/C=C/C(=O)O.c1ccc(CCOc2ncccc2OC[C@H]2CCCNC2)cc1 [Example 82, (S)-2-phenethyloxy-3-(piperidin-3-ylmethoxy)-pyridine fumaric acid] | 210 | 3700 | 146 to 148 °C (dec.)
